# Experiments:
# Ann. Cyp (Cyperus spp) = assay: Example 5 field test, weed control, JAAPR, Japan; settings: 1.5 kg/ha, 7 DAT
# Method: (§1) In the tests described in the tables below, the herbicides were formulated and used in granular form in conventional manner. […] The commercial herbicide used was a granular product having 5% active ingredient.
# (§2) In the field tests of the herbicide of this invention with transplanted rice, the rice seedlings were grown in conventional manner, by seeding the rice in a typical seedbed of sandy loam to clay soil of the country wherein the test was conducted. For laboratory and greenhouse work the seedlings were obtained by seeding rice in a mixture of soil, e.g., Ray silt loam, and peat in wood flats. For purposes of testing the herbicides on younger rice seedlings (infant or Dapog) the rice was usually allowed to grow for 6-15 days before lifting for transplanting. Older (ordinary) rice plants were usually grown for a period of about 2-3 weeks, or as much as about 7 weeks before lifting. Since the period of growth is dependent upon climatic conditions, a better measure of when to transplant the rice seedling is the leaf stage of growth; for infant or Dapog rice the seedling is lifted at the 1.5-2 leaf stage of growth, and for ordinary seedlings at the 2.5-5 leaf stage. The seedlings were then transplanted to the test plots for evaluation of the herbicide for injury against weed species present with the transplanted rice. The herbicides were then applied to the growth medium of the weeds and transplant rice, either preemergent or postemergent with respect to the weeds and postemergent with respect to the transplanted rice. Application times are designated in the tables as "DAT", meaning "days after transplant". Application rates given in the tables refer to the amount of active ingredient used.
# (§3) The rice seedlings were grown to the 1.7 leaf stage for infant seedlings and to the 5.5 leaf stage for ordinary seedlings. Two days after puddling the soil in which the seedlings were to be transplanted, both infant and ordinary seedlings were transplanted into plots 8.5 m^2.
# (§4) The weed symbol "Obw" represents "other broadleaf weeds" of unspecified identity. Results presented in Table 5 represent the average of 2 replications.
# [1] = test system: Perennials Ek and Sa (Eleocharis kuroguwai, Sagittaria aginashi); assay: Example 1 field test, perennial weed control, Iri, Korea; assay type: in vivo; settings: weed weight at 63 DAT
# From the text: In the field test 48 day-old seedlings (Watanabe variety) were transplanted to plots 2.5 × 6 m. seeded with the weed seeds indicated in Table 1. At 5 and 10 DAT periods, the herbicides were applied to the plants (now at the 1.2 and 2.0 leaf stage, respectively, of grass weed) at the indicated rate in kilograms per hectare (kg/ha). The weed control and rice injury results for 3 replications are reported in percentages as of the indicated times of observation. The percentages given in the "Perennials" column are based on the weight of the weeds at 63 DAT, i.e., 42 gms/3.6 m^2 for the weedy check.
# [2] = test system: Broadleaf: Mv, Sz (Monochoria vaginalis, Sphenoclea zeylanica); assay: Example 3 field test on Dapog rice, weed control, Munoz, Philippines; assay type: in vivo, Monochoria vaginalis and Sphenoclea zeylanica; settings: obs. 42 DAT
# From the text: Treatments were replicated four times.
# [3] = test system: Ea (Eleocharis acicularis); assay: Example 5 field test, weed control, JAAPR, Japan; assay type: in vivo; settings: 1.5 kg/ha, 7 DAT
# [4] = test system: Mv (Monochoria vaginalis); assay: Example 5 field test, weed control, JAAPR, Japan; assay type: in vivo; settings: 1.5 kg/ha, 7 DAT
# [5] = test system: transplanted rice (ordinary and infant seedlings); assay: Example 5 field test, rice injury; settings: 1.5 kg/ha, 7 DAT
# Method: as §1, §2, §3, §4
# Monochoria vaginalis = assay: Example 2 field test, weed control, Chia Yi, Taiwan; assay type: in vivo; settings: obs. 63 DAT
# Method: (§5) In the field tests of the herbicide of this invention with transplanted rice, the rice seedlings were grown in conventional manner, by seeding the rice in a typical seedbed of sandy loam to clay soil of the country wherein the test was conducted. For laboratory and greenhouse work the seedlings were obtained by seeding rice in a mixture of soil, e.g., Ray silt loam, and peat in wood flats. For purposes of testing the herbicides on younger rice seedlings (infant or Dapog) the rice was usually allowed to grow for 6-15 days before lifting for transplanting. Older (ordinary) rice plants were usually grown for a period of about 2-3 weeks, or as much as about 7 weeks before lifting. Since the period of growth is dependent upon climatic conditions, a better measure of when to transplant the rice seedling is the leaf stage of growth; for infant or Dapog rice the seedling is lifted at the 1.5-2 leaf stage of growth, and for ordinary seedlings at the 2.5-5 leaf stage. The seedlings were then transplanted to the test plots for evaluation of the herbicide for injury against weed species present with the transplanted rice. The herbicides were then applied to the growth medium of the weeds and transplant rice, either preemergent or postemergent with respect to the weeds and postemergent with respect to the transplanted rice. […] Application rates given in the tables refer to the amount of active ingredient used.
# (§6) Rice seedlings (ordinary) of Tainan No. 5 variety (japonica) were transplanted at 19 days of growth. Granular formulations of Herbicides A and B were applied at the 1 leaf stage of grass weed (4 DAT) and 2.5 leaf stage of grass weed (10 DAT).
# [6] = test system: Ec (Echinochloa crusgalli); assay: Example 5 field test, weed control, JAAPR, Japan; assay type: in vivo; settings: 1.5 kg/ha, 7 DAT
# Dapog transplanted rice = assay: Example 3 field test, rice yield; assay type: in vivo
# Method: as §1, §2
# Eleven (11) day-old Dapog seedlings were transplanted and treated at 5 DAT and 14 DAT with Herbicides A and B. The plots were overseeded with Echinochloa crusgalli seeds at 2 kgs/ha prior to transplanting. Treatments were replicated four times.
# Cyperus difformis = assay: Example 2 field test, weed control, Chia Yi, Taiwan; assay type: in vivo; settings: obs. 63 DAT
# Method: as §5, §6
structure (smiles),measurement,setting,value
"CCCCOCN(C(=O)CCl)c1c(CC)cccc1CC [Herbicide B, n-(butoxymethyl)-2',6'-diethyl-2-chloroacetanilide, reference compound]",control of Ann. Cyp in words,Ann. Cyp (Cyperus spp),substantially complete control
same,% Weed Control (Ann. Cyp),Ann. Cyp (Cyperus spp); infant seedlings,100%
same,% Weed Control (Ann. Cyp),Ann. Cyp (Cyperus spp); ordinary seedlings,99%
same,% Weed Control (Perennials Ek and Sa),"[1]; 5 DAT, 1.0 kg/ha",0%
same,% Weed Control (Perennials Ek and Sa),"[1]; 5 DAT, 1.5 kg/ha",41%
same,% Weed Control (Perennials Ek and Sa),"[1]; 5 DAT, 3.0 kg/ha",0%
same,% Weed Control (Perennials Ek and Sa),"[1]; 10 DAT, 1.0 kg/ha",0%
same,% Weed Control (Perennials Ek and Sa),"[1]; 10 DAT, 1.5 kg/ha",0%
same,% Weed Control (Perennials Ek and Sa),"[1]; 10 DAT, 3.0 kg/ha",0%
same,"% Weed control, Broadleaf (Mv,Sz)","[2]; 5 DAT, 1.0 kg/ha",100%
same,"% Weed control, Broadleaf (Mv,Sz)","[2]; 5 DAT, 1.5 kg/ha",100%
same,"% Weed control, Broadleaf (Mv,Sz)","[2]; 5 DAT, 3.0 kg/ha",100%
same,"% Weed control, Broadleaf (Mv,Sz)","[2]; 14 DAT, 1.0 kg/ha",0%
same,"% Weed control, Broadleaf (Mv,Sz)","[2]; 14 DAT, 1.5 kg/ha",0%
same,"% Weed control, Broadleaf (Mv,Sz)","[2]; 14 DAT, 3.0 kg/ha",70%
same,control of Ea in words,[3],complete control
same,% Weed Control (Ea),[3]; infant seedlings,100%
same,% Weed Control (Ea),[3]; ordinary seedlings,93%
same,% Weed Control (Mv),[4]; infant seedlings,66%
same,% Weed Control (Mv),[4]; ordinary seedlings,86%
same,Injury,[5]; infant seedlings,10
same,Injury,[5]; ordinary seedlings,5
same,% Weed Control (Monochoria Vaginalis),"Monochoria vaginalis; 4 DAT, 1.0 kg/ha",77%
same,% Weed Control (Monochoria Vaginalis),"Monochoria vaginalis; 4 DAT, 1.5 kg/ha",94%
same,% Weed Control (Monochoria Vaginalis),"Monochoria vaginalis; 4 DAT, 3.0 kg/ha",99%
same,% Weed Control (Monochoria Vaginalis),"Monochoria vaginalis; 10 DAT, 1.0 kg/ha",65%
same,% Weed Control (Monochoria Vaginalis),"Monochoria vaginalis; 10 DAT, 1.5 kg/ha",78%
same,% Weed Control (Monochoria Vaginalis),"Monochoria vaginalis; 10 DAT, 3.0 kg/ha",89%
same,control of Ec in words,[6],substantially complete control
same,% Weed Control (Ec),[6]; infant seedlings,99%
same,% Weed Control (Ec),[6]; ordinary seedlings,81%
same,yield vs control,"Dapog transplanted rice; 1 kg/ha, 5 DAT",significantly higher than the control
same,Yield (% of H.W. Check),"Dapog transplanted rice; 5 DAT, 1.0 kg/ha",142%
same,Yield (% of H.W. Check),"Dapog transplanted rice; 5 DAT, 1.5 kg/ha",107%
same,Yield (% of H.W. Check),"Dapog transplanted rice; 5 DAT, 3.0 kg/ha",101%
same,Yield (% of H.W. Check),"Dapog transplanted rice; 14 DAT, 1.0 kg/ha",83%
same,Yield (% of H.W. Check),"Dapog transplanted rice; 14 DAT, 1.5 kg/ha",89%
same,Yield (% of H.W. Check),"Dapog transplanted rice; 14 DAT, 3.0 kg/ha",93%
same,% Weed Control (Cyperus difformis),"Cyperus difformis; 4 DAT, 1.0 kg/ha",100%
same,% Weed Control (Cyperus difformis),"Cyperus difformis; 4 DAT, 1.5 kg/ha",100%
same,% Weed Control (Cyperus difformis),"Cyperus difformis; 4 DAT, 3.0 kg/ha",100%
same,% Weed Control (Cyperus difformis),"Cyperus difformis; 10 DAT, 1.0 kg/ha",100%
same,% Weed Control (Cyperus difformis),"Cyperus difformis; 10 DAT, 1.5 kg/ha",100%
same,% Weed Control (Cyperus difformis),"Cyperus difformis; 10 DAT, 3.0 kg/ha",100%

# Reference: US3955959A, “Herbicide for use in transplanted rice” (priority 1974, dated 1976)
